Experimental data: patent US8394809B2, “Phenoxy-substituted pyrimidines as opioid receptor modulators” (priority 2009, dated 2013)
Where “and” joins values, the source holds several entries; their conditions need not be identical. Identical values can stand only once. Like-named read-outs stand apart in the source and are kept apart here.

Assays:
delta opioid receptor [1] = target: T1, delta opioid receptor (Mus musculus, UniProt P32300); assay: [35S]GTPγS binding assay in NG108-15 cell membranes (delta opioid functional assay); type: biochemical; conditions: for GTPγS δ-Rel Efficacy @200 nM: 200 nM compound, relative to calculated max of SNC80 dose response
T1 construct: NG108-15 cell membranes were purchased from Applied Cell Sciences (Rockville, Md.); host or cells: NG108-15 cell membranes (purchased)
Method: Methods: NG108-15 cell membranes were purchased from Applied Cell Sciences (Rockville, Md.). 5 mg/mL of membrane protein was suspended in 10 mM TRIS-HCl pH 7.2, 2 mM EDTA, 10% sucrose. Membranes were maintained at 4-8° C. A 1 mL volume of membranes was added into 10 mL cold binding assay buffer. The assay buffer contained 50 mM Tris, pH 7.6, 5 mM MgCl2, 100 mM NaCl, 1 mM DTT and 1 mM EGTA. The membrane suspension was homogenized twice with a Polytron, and centrifuged at 3000 rpm for 10 min. The supernatant was then centrifuged at 18,000 rpm for 20 min. Ten mL assay buffer was added into the pellet containing tube. The pellet and buffer were mixed with a Polytron.
Incubation procedure: The pellet membranes (75 μg/mL) were preincubated with SPA (10 mg/mL) at 25° C. for 45 min in the assay buffer. […] 200 nM of receptor agonists was used to stimulate [^35S]-GTPγS binding. The basal binding was tested in the absence of agonists and non-specific binding was tested in the presence of 10 μM unlabeled GTPγS.
Data % of Basal=(stimulated−non specific)*100/(basal−non specific). Relative Efficacy of a compound at 200 nM=(% of Basal of test compound at 200 nM)/(Calculated Max of SNC80 dose response. Curve in prism).

delta opioid receptor [2] = target: T1, delta opioid receptor; assay: NG108-15, 24-well delta opioid receptor binding assay; conditions: NG108-15 cell membranes, ~0.2 nM [3H]Naltrindole; read-out: δ-binding NG108 cell membrane Ki
Method: Methods: NG108-15 cell membranes were purchased from Applied Cell Sciences (Rockville, Md.). 5 mg/mL of membrane protein was suspended in 10 mM TRIS-HCl pH 7.2, 2 mM EDTA, 10% sucrose. With several brief pulses from a Polytron homogenizer, each vial was homogenized in 5 mls of 50 mM Tris Buffer, pH 7.4. The homogenate was diluted in 50 mM Tris Buffer containing 5 mM MgCl2 to 330 ug/ml in the working solution for a final concentration of 133 ug/well. This particulate preparation was used for the 24-well delta opioid binding assay.
Following incubation with the delta selective ligand ˜0.2 nM [^3H]Naltrindole at 25° C. for 2.5 h in a 24-well plate with total volume of 1 mL, the plate contents were filtered through a UniFilter24, GF/B. This plate was presoaked in 0.3% PEI and filtered through a 24-well Harvester. The UniFilter24 was rinsed three times with 2 mL of 10 mM HEPES (pH 7.4), and dried in an oven at 37° C. for 1.5 hours. To each well, was added 150 μL of Scint0 (PerkinElmer, Cat#6013611). The plates were then read on a TopCount.
Analysis: The data from the scintillation counter were used to calculate either the % inhibition compared to control binding (when only a single concentration of test compound was evaluated) or a Ki value (when a range of concentrations was tested). Non-specific binding (N.S.—1 mM Naloxone) is used as the negative control, while the Total Binding (T.B.—Membrane and ligand only) is used as the positive control. If one concentration is screened, the % inhibition is calculated as (cpms of total binding minus cpms of compound) divided by (cpms of T.B. minus cpms of N.S). The triplicate % Inhibitions are averaged and reported. If multiple concentrations are generated, the values are analyzed using the one-site binding non-linear regression program in Prism to determine Ki values. The bottom and top values are globally shared. The triplicate Kis are then averaged and reported.

mu opioid receptor = target: T2, mu opioid receptor (Rattus norvegicus, UniProt P33535); assay: Rat brain mu opioid receptor binding assay
T2 construct: the forebrains were homogenized in Tris buffer in a Teflon®-glass homogenizer; from tissue; host or cells: forebrain of male Wistar rats, particulate membrane preparation
Method: (§1) Procedure: Male, Wistar rats (150-250 g, VAF, Charles River, Kingston, N.Y.) were killed by CO2, and their brains were removed and placed immediately in ice cold Tris HCl buffer (50 mM, pH 7.4). The forebrains were separated from the remainder of the brain by a coronal transection, beginning dorsally at the colliculi and passing ventrally through the midbrain-pontine junction. After dissection, the forebrains were homogenized in Tris buffer in a Teflon®-glass homogenizer. The homogenate was diluted to a concentration of 1 g of forebrain tissue per 80 mL Tris and centrifuged at 39,000×g for 10 min. The pellet was resuspended in the same volume of Tris buffer containing 5 mM MgCl2 with several brief pulses from a Polytron homogenizer. This particulate preparation was used for the mu opioid binding assays. Following incubation with the mu selective peptide ligand, ˜0.8 nM [^3H]DAMGO, at 25° C. for 2.5 h in a 96-well plate with total assay volume of 1 mL, the plate contents were filtered through Wallac filtermat B sheets on a Tomtec 96-well harvester. […] To each sample area 2×40 μL of Betaplate Scint scintillation fluid (LKB) was added and the radioactivity was quantifed on a LKB (Wallac) 1205 BetaPlate liquid scintillation counter.
(§2) Analysis: The data from the scintillation counter was used to calculate either the % inhibition compared to control binding (when only a single concentration of test compound was evaluated) or a Ki value (when a range of concentrations was tested). Percent inhibition was calculated as: [(total dpm−test compound dpm)/(total dpm-nonspecific dpm)]*100. Kd and Ki values were calculated using GraphPad PRISM data analysis program.

delta opioid receptor [3] = target: T3, delta opioid receptor (Rattus norvegicus, UniProt P33533); assay: Rat brain delta opioid receptor binding assay
T3 construct: the forebrains were homogenized in Tris buffer in a Teflon®-glass homogenizer; from tissue; host or cells: forebrain of male Wistar rats, particulate membrane preparation
Method: as §1, with “delta” for “mu”, “ligand ˜4” for “ligand, ˜0.8”, “[^3H]DPDPE or 0.25 nM [^3H]naltrindole” for “[^3H]DAMGO,”, “total” for “total assay”, “2×50” for “2×40”, “quantified” for “quantifed”
as §2

delta opioid receptor [4] = target: T1, delta opioid receptor; assay: [35S]GTPγS binding assay in NG108-15 cell membranes (delta opioid functional assay); type: biochemical; conditions: for inhibition at 10 µM: read-out: GTPγS δ-opioid receptor % Inh @10 μM, 10 μM
[5] = target: T4, mu opioid receptor (CHO-hMOR cell membranes) (Homo sapiens, UniProt P35372); assay: [35S]GTPγS binding assay in CHO-hMOR cell membranes (mu opioid functional assay); type: biochemical
T4 construct: host or cells: CHO cells (membranes purchased)

[6] = read-out: GTPγS δ-opioid receptor EC50
[7] = rat forebrain membranes, ~0.8 nM [3H]DAMGO, read-out: μ-binding Ki
[8] = rat forebrain membranes, 0.25 nM [3H]naltrindole, read-out: δ-binding (Naltrindole ligand) Ki

T2 sequence (P33535 whole entry): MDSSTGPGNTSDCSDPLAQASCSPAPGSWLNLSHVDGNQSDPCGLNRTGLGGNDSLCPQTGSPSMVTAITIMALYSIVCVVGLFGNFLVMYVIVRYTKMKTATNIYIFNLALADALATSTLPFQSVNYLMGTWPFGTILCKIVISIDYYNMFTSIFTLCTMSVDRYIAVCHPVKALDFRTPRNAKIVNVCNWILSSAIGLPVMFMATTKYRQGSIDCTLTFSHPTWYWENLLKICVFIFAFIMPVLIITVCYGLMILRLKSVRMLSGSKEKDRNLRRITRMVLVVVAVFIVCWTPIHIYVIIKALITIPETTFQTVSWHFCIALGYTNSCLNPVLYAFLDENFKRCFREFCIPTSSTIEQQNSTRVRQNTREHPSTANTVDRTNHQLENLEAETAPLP
T3 sequence (P33533 whole entry): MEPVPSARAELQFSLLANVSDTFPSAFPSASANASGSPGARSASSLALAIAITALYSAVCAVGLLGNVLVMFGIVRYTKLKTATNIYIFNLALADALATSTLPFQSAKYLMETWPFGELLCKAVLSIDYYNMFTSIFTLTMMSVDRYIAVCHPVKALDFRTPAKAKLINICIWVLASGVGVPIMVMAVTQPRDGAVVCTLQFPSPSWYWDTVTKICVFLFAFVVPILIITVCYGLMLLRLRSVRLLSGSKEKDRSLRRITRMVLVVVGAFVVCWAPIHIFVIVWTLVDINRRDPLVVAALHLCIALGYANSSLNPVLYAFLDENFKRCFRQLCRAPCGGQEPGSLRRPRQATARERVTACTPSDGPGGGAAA
T1 sequence (P32300 whole entry): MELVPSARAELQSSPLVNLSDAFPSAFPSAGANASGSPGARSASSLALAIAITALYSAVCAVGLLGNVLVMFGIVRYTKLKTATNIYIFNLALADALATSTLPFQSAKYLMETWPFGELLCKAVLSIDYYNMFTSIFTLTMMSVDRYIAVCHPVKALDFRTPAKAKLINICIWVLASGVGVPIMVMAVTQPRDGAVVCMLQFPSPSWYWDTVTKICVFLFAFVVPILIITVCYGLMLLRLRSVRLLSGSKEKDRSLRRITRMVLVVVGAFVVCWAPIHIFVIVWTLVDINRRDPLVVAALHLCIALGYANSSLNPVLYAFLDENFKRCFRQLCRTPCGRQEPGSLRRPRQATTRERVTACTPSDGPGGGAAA
T4 sequence (P35372 whole entry): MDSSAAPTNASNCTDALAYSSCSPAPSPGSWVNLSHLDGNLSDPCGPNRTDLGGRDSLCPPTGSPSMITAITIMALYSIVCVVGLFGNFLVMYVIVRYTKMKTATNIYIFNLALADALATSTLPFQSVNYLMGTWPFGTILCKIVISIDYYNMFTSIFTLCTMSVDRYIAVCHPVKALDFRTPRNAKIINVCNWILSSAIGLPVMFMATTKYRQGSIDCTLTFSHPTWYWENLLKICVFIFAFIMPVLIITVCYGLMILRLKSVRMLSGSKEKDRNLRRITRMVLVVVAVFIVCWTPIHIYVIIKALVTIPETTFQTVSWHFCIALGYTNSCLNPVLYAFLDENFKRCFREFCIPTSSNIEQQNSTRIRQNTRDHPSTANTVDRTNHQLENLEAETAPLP

Row | Compound | GTPγS δ-opioid receptor Rel Efficacy (delta opioid receptor [1]) | EC50 (delta opioid receptor [1]; [6]) [nM] | Ki (delta opioid receptor [2]) [nM] | Ki (mu opioid receptor) [nM] | Ki (delta opioid receptor [3]) [nM] | inhibition at 10 µM (delta opioid receptor [4]) [%] | Ki (mu opioid receptor; [7]) [nM] | Ki (delta opioid receptor [3]; [8]) [nM] | GTPγS δ-opioid receptor % Inh @10 μM (delta opioid receptor [4]) [%] | also measured
1 | [2-(3-Fluoro-phenoxy)-4-(4-methoxy-phenoxy)-pyrimidin-5-yl]-pyrrolidin-2-(S)-ylmethyl-amine [Cpd 46] | 0.983 | 28 | 0.288 |  |  |  |  |  |  | GTPγS δ-Rel Efficacy @200 nM (delta opioid receptor [1]): 0.770
2 | CCN(CC)C(=O)c1ccc(Oc2ncc(NC[C@@H]3CCCN3)c(Oc3ccc(OC)cc3)n2)cc1 [Cpd 5, N,N-Diethyl-4-{4-(4-methoxy-phenoxy)-5-[(pyrrolidin-2-(S)-ylmethyl)-amino]pyrimidin-2-yloxy}-benzamide] |  | 2620 |  | 18.2 | 18.3 | 26.4 |  |  |  | 
3 | COc1ccc(Oc2nc(Oc3cccnc3)ncc2NC[C@@H]2CCCN2)cc1 [Cpd 45] | 1.178 | 734 | 1.45 |  |  |  |  |  |  | 
4 | COc1ccc(Oc2ncc(NC[C@@H]3CCCN3)c(Oc3ccc(OC)cc3)n2)cc1 [Cpd 1, [2,4-Bis-(4-methoxyphenoxy)pyrimidin-5-yl]pyrrolidin-2-(S)-ylmethylamine] |  |  |  | 3880 | 5.9 |  |  |  |  | EC50 ([5]; CHO-hMOR cell membranes, read-out: GTPγS μ-opioid receptor EC50): 84300 nM; inhibition at 10 µM ([5]; read-out: GTPγS μ-opioid receptor % Inh @10 μM): 19.5%
5 | COc1ccc(Oc2nc(Sc3cccc(F)c3)ncc2NC[C@@H]2CCCN2)cc1 [Cpd 47] | 1.079 | 193 | 0.739 |  |  |  |  |  |  | GTPγS δ-Rel Efficacy @200 nM (delta opioid receptor [1]): 0.481
6 | COc1ccc(Oc2ncc(NCC3CCCN3)c(Oc3ccc(OC)cc3)n2)cc1 (stereo not drawn) [Cpd 7] |  | 221 |  |  |  |  | 2850 | 68.4 | 20.645 | 
7 | COc1ccc(Oc2ncc(NC3CCCNC3)c(Oc3ccc(OC)cc3)n2)cc1 (stereo not drawn) [Cpd 2] |  | 828 |  | 2440 | 7.61 | 8.16 |  |  |  | 
8 | N-{2-[2,4-Bis-(4-methoxy-phenoxy)-pyrimidin-5-ylamino]ethyl}-guanidine [Cpd 44] |  | 1110 |  |  |  |  |  |  | 15.636 | 
9 | COc1ccc(Oc2nc(C#Cc3ccccc3)ncc2NC[C@@H]2CCCN2)cc1 [Cpd 4, [4-(4-Methoxy-phenoxy)-2-phenylethynyl-pyrimidin-5-yl]-pyrrolidin-2-(S)-ylmethyl-amine] |  |  |  |  |  | 8.94 | 4420 | 16.3 |  | EC50 (delta opioid receptor [1]; GTPγS δ-opioid receptor EC50): 1030 nM
10 | COc1ccc(Oc2ncc(NC3CCCC(N)C3)c(Oc3ccc(OC)cc3)n2)cc1 (stereo not drawn) [Cpd 3] | 1.106 |  |  |  |  | 12.8 | 1670 | 16.1 | 19.733 | EC50 (delta opioid receptor [1]; GTPγS δ-opioid receptor EC50): 559 nM and 92 nM and 206 nM
